Reference: PMC10314207, “The Dynamic Intestinal Absorption Model (Diamod®), an in vitro tool to study the interconnected kinetics of gastrointestinal solubility, supersaturation, precipitation, and intestinal permeation processes of oral drugs” (International Journal of Pharmaceutics: X, 2023)
Values after ≈ are worked out from the molar mass of the structure shown. Counter-ions that a name gives are not always drawn.

What was measured:
[1] = Diamod® fed state: indinavir sulfate with protein meal (Ensure® plus) or carbohydrate meal, high or low bile salts
[2] = high carbohydrate meal; ref Carver et al. (1999); cited from earlier work
[3] = water intake versus no water, cited from earlier work
[4] = Diamod® fasted state: 20 mL Sporanox® solution without or with 240 mL water (stomach, duodenum, permeate); type: in vitro ADME
Procedure: The stomach vessel accepts gastric secretions (Flow rate F1) and is continuously emptied (Flow rate F2) into the second reactor vessel which simulates the lumen of the duodenum and the blood stream that accepts the permeated fraction. […] The geometry of the inner donor compartment is designed to contain biorelevant duodenal volumes (30 mL), to generate a permeation surface area of 65 cm^2 and to result in a permeation surface area to donor volume ratio of 2 cm^−1.

[5] = ref Bevernage et al., 2012; cited from earlier work
[6] = fed, carbohydrate meal, high bile salts

CC(C)(C)NC(=O)[C@@H]1CN(Cc2cccnc2)CCN1C[C@@H](O)C[C@@H](Cc1ccccc1)C(=O)N[C@H]1c2ccccc2C[C@H]1O [indinavir sulfate]
decrease in average duodenal solute concentration AUC0–240min ([1]; fed high protein meal versus fasted): 34.2%
increase of Tmax [2]: approximately 3 h

CC(O)COC[C@H]1O[C@@H]2O[C@H]3[C@H](O)[C@@H](O)[C@@H](O[C@H]4[C@H](O)[C@@H](O)[C@@H](O[C@H]5[C@H](O)[C@@H](O)[C@@H](O[C@H]6[C@H](O)[C@@H](O)[C@@H](O[C@H]7[C@H](O)[C@@H](O)[C@@H](O[C@H]8[C@H](O)[C@@H](O)[C@@H](O[C@H]1[C@H](O)[C@H]2O)O[C@@H]8COCC(C)O)O[C@@H]7COCC(C)O)O[C@@H]6COCC(C)O)O[C@@H]5COCC(C)O)O[C@@H]4COCC(C)O)O[C@@H]3COCC(C)O (stereo partly drawn) [2-HP-β-CD, 2-hydroxypropyl-β-cyclodextrin]
fold decrease in duodenal AUC0-3h ([3]; in vivo duodenal aspirates, ref Berben et al. (2018c)): 2.3 fold

CCC(C)n1ncn(-c2ccc(N3CCN(c4ccc(OCC5COC(Cn6cncn6)(c6ccc(Cl)cc6Cl)O5)cc4)CC3)cc2)c1=O (stereo not drawn) [itraconazole]
additional precipitation in the duodenum upon water intake ([4]; difference of solute and total AUC reduction): 24.0%
dissolution state during transit through the stomach ([4]; independently of water intake): completely dissolved
decrease in AUC0-180min of permeated drug ([4]; water intake versus no water): 3.2%
decrease in stomach solute AUC0-180min ([4]; water intake versus no water): 47%
decrease in stomach total AUC0-180min ([4]; water intake versus no water): 45%
decrease of duodenal AUC0-180min of solute concentration ([4]; water intake versus no water): 56.1%
fold decrease of stomach AUC0-180min of solute itraconazole ([4]; water intake versus no water): 1.9 fold
reduction of duodenal AUC0-180min of total concentration ([4]; water intake versus no water): 32.1%
solubility in FaSSGF [5]: 2.7 µM (≈ 1.91 µg/mL)
reduction (times) in average dissolved gastric AUC0-3h ([3]; in vivo, ref Berben et al., 2017): 1.8 times

CC(C)(C)NC(=O)[C@@H]1CN(Cc2cccnc2)CCN1C[C@@H](O)C[C@@H](Cc1ccccc1)C(=O)N[C@H]1c2ccccc2C[C@H]1O [indinavir]
Cmax total in the duodenum [1, 6]: 504.3 ± 3.1 µM
Cmax total in the stomach [1, 6]: 1225.5 ± 19.9 µM
supersaturation state in the duodenum [1, 6]: supersaturated throughout the transit through the duodenum
supersaturation state in the duodenum ([1]; fed, carbohydrate meal, low bile salts): supersaturating throughout the transit through the duodenum
Cmax total in the duodenum ([1]; fed, high protein meal): 514.8 ± 16.5 µM
Cmax total in the stomach ([1]; fed, high protein meal (Ensure® Plus)): 1386.0 ± 120.11 µM
duodenal solute concentrations ([1]; fed, high protein meal, after bile salts decreased towards fasted levels): around 100 μM
supersaturation state in the duodenum ([1]; fed, high protein meal, period of high bile salts): not in a state of supersaturation
